Literature values in patent US20050192272A1, “Substituted benzodiazepines as inhibitors of the chemokine receptor CXCR4” (priority 2003, published 2005).

Experiments:
[1] = Phase I/II clinical trials
[2] = rats
CXCR4 = CXCR4 (Homo sapiens, UniProt P61073); conditions: read-out: IC50 in inhibiting the binding of CXCL12 to CXCR4
CXCR4, sequence (P61073 whole entry): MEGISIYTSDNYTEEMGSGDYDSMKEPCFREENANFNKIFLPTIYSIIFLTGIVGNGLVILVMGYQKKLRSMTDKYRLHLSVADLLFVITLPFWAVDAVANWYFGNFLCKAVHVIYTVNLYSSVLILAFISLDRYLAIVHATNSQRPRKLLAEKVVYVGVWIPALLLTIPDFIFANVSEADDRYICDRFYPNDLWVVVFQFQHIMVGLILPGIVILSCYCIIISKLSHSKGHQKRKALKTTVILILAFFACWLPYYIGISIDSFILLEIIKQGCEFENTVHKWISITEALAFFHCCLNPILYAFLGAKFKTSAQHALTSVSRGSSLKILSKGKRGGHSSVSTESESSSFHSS

c1cc(CN2CCCNCCNCCCNCC2)ccc1CN1CCCNCCNCCCNCC1 [ALX40-4C]
acute cardiac toxicity (month-long clinical study, 1995): did not exhibit any acute cardiac toxicity
adverse side effects (one-month Phase I/II clinical study): no adverse side effects

c1cc(CN2CCCNCCNCCCNCC2)ccc1CN1CCCNCCNCCCNCC1 [AMD3100]
cardiac toxicity [1]: exhibited certain cardiac toxicity properties
effectiveness [1]: limited effectiveness

C[C@H](NC(=O)[C@H](CCCNC(=N)N)NC(=O)c1ccc(CNCc2ccccn2)cc1)c1cccc2ccccc12 [KRH-1636]
absorption from the duodenum [2]: absorbed from the duodenum in rats

[Tyr^5,12, Lys^7]-polyphemusin II [T-22]
inhibition of multiplication of X4-strains of HIV (X4-strains of HIV; through specific binding to the CXCR4 receptor): strongly inhibit

c(Nal-Gly-tyr-Arg-Arg) [FC131]
IC50 (CXCR4): 4 nM
level of anti-HIV activity and antagonism among CXCR4 antagonists reported to date (X4-strains of HIV): matched
